# Source: article PMC8493801, “Exploring the Monoterpene Indole Alkaloid Scaffold for Reversing P-Glycoprotein-Mediated Multidrug Resistance in Cancer” (Pharmaceuticals, 2021)
# Tests used:
# [1] = test system: human ABCB1-transfected L5178Y mouse lymphoma cells; assay: Checkerboard combination assay with doxorubicin; format: cell-based; parameters: key to CI at ED50 (combination index): CI <1 synergy, =1 additive, >1 antagonism; details: MDR cells; for CI at ED50 (combination index): best ratio
# Description: The in vitro interactions between the compounds and the well-known antitumor drug and P-gp substrate, doxorubicin, were evaluated in a combination chemotherapy model on human ABCB1-transfected mouse T-lymphoma cells. The nature of drug–drug interactions was assessed by determination of the combination index (CI) using the Chou and Talalay method (Figure 1), and therefore evaluated as synergistic (CI < 1), additive (CI = 1), or antagonistic (CI > 1).
# Doxorubicin (2 mg/mL, Teva Pharmaceuticals, Budapest, Hungary) was serially diluted horizontally in 100 µL as previously described, starting with 8.6 µM. The resistance modifier was subsequently diluted vertically in 50 µL; the starting concentration was determined based on the IC50. […] The checkerboard plates were kept for 72 h at 37 °C in a CO2 incubator, and at the end of the incubation period, the cell growth was determined by MTT staining method, as described earlier. Drug interactions were evaluated using Calcusyn software. Each dose–response curve (for individual agents as well as combinations) was fit to a linear model using the median effect equation in order to obtain the median effect value (corresponding to the IC50) and slope (m). The goodness-of-fit was assessed using the linear correlation coefficient, r, and only data from analysis with r > 0.90 were presented. The extent of interaction between drugs was expressed using the combination index, in which a CI value close to 1 indicates additivity, while a CI < 1 is defined as synergy and a CI > 1 as antagonism.
# [2] = molecular target: T1, recombinant human P-gp membranes (Homo sapiens, UniProt P08183); assay: P-gp ATPase activity assay (Pgp-Glo); format: biochemical; details: 25 µM; for % basal P-gp activity: basal activity = 100%
# T1 construct: purchased Promega
# T1 sequence (P08183 whole entry): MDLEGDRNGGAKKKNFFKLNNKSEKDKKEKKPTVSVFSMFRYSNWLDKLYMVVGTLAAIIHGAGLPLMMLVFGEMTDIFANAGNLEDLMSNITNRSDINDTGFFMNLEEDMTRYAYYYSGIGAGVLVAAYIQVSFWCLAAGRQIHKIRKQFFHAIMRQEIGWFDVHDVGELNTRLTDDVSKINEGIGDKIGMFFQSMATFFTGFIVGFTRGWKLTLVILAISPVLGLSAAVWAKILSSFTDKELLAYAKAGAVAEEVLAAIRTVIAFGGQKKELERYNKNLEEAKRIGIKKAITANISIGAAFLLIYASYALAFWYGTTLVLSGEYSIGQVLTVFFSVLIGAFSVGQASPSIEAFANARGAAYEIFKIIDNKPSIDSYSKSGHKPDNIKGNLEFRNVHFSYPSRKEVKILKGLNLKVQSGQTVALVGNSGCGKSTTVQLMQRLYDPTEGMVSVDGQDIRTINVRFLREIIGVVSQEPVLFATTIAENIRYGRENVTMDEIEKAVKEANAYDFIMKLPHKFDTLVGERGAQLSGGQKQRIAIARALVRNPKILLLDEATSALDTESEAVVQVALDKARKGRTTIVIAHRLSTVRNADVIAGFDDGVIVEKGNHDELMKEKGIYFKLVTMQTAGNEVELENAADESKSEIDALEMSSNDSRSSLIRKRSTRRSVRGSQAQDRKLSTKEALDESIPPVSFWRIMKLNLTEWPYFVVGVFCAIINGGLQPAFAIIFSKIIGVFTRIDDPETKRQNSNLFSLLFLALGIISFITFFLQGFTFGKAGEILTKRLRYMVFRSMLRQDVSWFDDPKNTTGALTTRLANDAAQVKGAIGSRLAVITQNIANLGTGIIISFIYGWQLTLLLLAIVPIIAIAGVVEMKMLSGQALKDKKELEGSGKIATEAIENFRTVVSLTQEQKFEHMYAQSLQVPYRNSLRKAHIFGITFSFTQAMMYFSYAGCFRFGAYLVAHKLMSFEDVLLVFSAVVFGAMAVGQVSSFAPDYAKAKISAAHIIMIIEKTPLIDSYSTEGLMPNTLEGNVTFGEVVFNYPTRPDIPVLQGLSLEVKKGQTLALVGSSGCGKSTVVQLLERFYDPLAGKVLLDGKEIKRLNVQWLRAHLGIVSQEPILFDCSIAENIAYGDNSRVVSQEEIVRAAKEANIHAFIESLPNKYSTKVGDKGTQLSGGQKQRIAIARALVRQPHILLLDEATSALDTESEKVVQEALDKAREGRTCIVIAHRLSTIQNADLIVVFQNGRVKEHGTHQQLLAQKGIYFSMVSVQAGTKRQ
# Description: Once it was established that ATP hydrolysis is directly associated with the P-gp efflux activity, the interaction mode between selected compounds (12, 17, 18, 20, and 29) and this transporter protein was further investigated using human P-gp membranes in the ATPase activity assay (P-gp-Glo^TM) to gather insights about their interaction with P-gp activity, namely, as stimulators or inhibitors. This ATPase activity assay is based on the ATP dependence of the light-generating reaction of firefly luciferase. After incubating P-gp with ATP, the reaction is stopped, and the ATP consumption by P-gp is given by a luciferase-generated luminescent signal due to the remaining unmetabolized ATP. Thus, a greater decrease in the signal means a higher P-gp activity.
# Sodium orthovanadate (Vanadate, Na3VO4) is an inhibitor of P-gp ATPase activity; thus, after treating samples with vanadate, no P-gp-dependent ATP consumption is observed. Therefore, the P-gp basal ATP consumption (basal activity) is defined as the difference between the luminescent signal of samples treated with vanadate and untreated. Consequently, the tested compounds were ranked as stimulators or inhibitors by comparing their P-gp ATPase activity with the basal activity. Verapamil (0.5 mM), a known P-gp substrate and activator of the ATPase activity of this transporter, thus causing a decrease in the percentage of luminescence of luciferase when compared with untreated samples (Figure 2), was used as control. The results are represented in Figure 2 as the difference between the luminescence of luciferase observed when treated with the compounds and with vanadate in comparison with the basal activity (100%).
# The P-glycoprotein ATPase activity was determined using the Pgp-Glo^TM Assay Systems Promega kit according to the manufacturer’s instructions. Briefly, 20 µL of recombinant human P-gp membranes (1.25 mg/mL), expressing high levels of human P-gp, were incubated in 20 µL of Pgp-Glo^TM assay buffer for 5 min at 37 °C. Compounds were tested at 25 µM sodium orthovanadate (Na3VO4, 0.25 mM) as an inhibitor control, verapamil as a substrate control (0.5 mM), and DMSO at 2% as solvent control. The reaction was initiated by adding 10 µL of 25 mM MgATP and incubated at 37 °C for 40 min. The ATPase reaction was stopped, and after adding 50 µL of ATP Detection Reagent, the samples were incubated at room temperature for 20 min. The luciferase-generated luminescent signal emitted was measured in a CLARIOstar Plus plate reader (BMG Labtech, UK) at 580 nm. The % of basal P-gp activity was calculated through the ratio between the luminescence measured of the P-gp ATPase activity of each compound and the basal activity according to Equation (4).
# (4) % basal P-gp activity = LumNa3VO4−Lumtreated/LumNa3VO4−Lumuntreated×100%
# Figure 2 Effect of compounds 12, 17, 18, 20, 29, and verapamil (VER) on P-gp ATPase activity. The compounds are identified as P-gp substrates if they stimulate its basal activity (>100%) or as modulators when inhibiting basal activity (<100%). Compounds were tested at 25 µM and verapamil at 0.5 mM. Results were calculated as the means ± SD from experiments performed in triplicates.
# [3] = test system: sensitive L5178Y mouse T-lymphoma cells (PAR); assay: MTT antiproliferative assay, sensitive cells; format: cell-based; details: 72 h, mean ± SD
# Description: (§1) Non-cancer mouse embryonic fibroblasts (NIH/3T3) were also used.
# (§2) L5178Y mouse T-lymphoma cells (ECACC catalog no. 87111908, US FDA, Silver Spring, MD, USA) were transfected with the pHa MDR1/A retrovirus as previously reported. The ABCB1 (P-gp) overexpressing cells were selected by culturing the infected cells with 60 ng/mL of colchicine (Sigma-Aldrich Chemie GmbH, Steinheim, Germany) to preserve the MDR phenotype. L5178Y (parental, PAR) mouse T-cell lymphoma cells and the human ABCB1-transfected subline were cultured in McCoy’s 5A supplemented with 10% heat-inactivated horse serum, 100 U/L L-glutamine, and 100 mg/L penicillin-streptomycin mixture, all obtained from Sigma-Aldrich. The mouse embryonic fibroblast (NIH 3T3) cell line was purchased from ATCC (CRL-1658) and was cultured in DMEM medium supplemented with 10% fetal bovine serum. These adherent cells were detached using 0.25% trypsin and 0.02% EDTA for 5 min at 37 °C. Before the antiproliferative assay using NIH 3T3 cell line, the cells were seeded in untreated 96-well flat bottomed microtiter plates, following a 4 h incubation period in a humidified atmosphere (5% CO2, 95% air) at 37 °C.
# The assay was performed according to the previously applied experimental settings.
# [4] = test system: human ABCB1-gene transfected L5178Y subline (MDR); details: for RR (relative resistance ratio) = IC50MDR/IC50PAR: RR ≤ 0.5 means CS effect
# [5] = test system: mouse embryonic fibroblasts (NIH/3T3); assay: MTT antiproliferative assay, non-cancer cells; format: cell-based; details: for SI C/B (Selectivity Index): IC50 NIH/3T3 / IC50 MDR; for SI C/A (Selectivity Index): IC50 NIH/3T3 / IC50 PAR; for IC50: NIH3T3, non-cancer mouse embryonic fibroblasts, MTT, read-out: IC50 NIH/3T3 (C)
# Description: as §1
# In addition, the antiproliferative activity of the compounds was also evaluated on non-cancerous mouse embryonic fibroblast cells (NIH/3T3), whose values were compared with those of PAR and MDR cells by evaluation of the selective index (SI) values. […] The highest selective index values (SIC/A = 9.39; SIC/B = 10.79) were found for the derivative bearing the trimethoxyphenyl substituent (17).
# as §2
SMILES,Effect on P-gp ATPase activity [2],IC50 [3] [µM],IC50 [4] [µM],RR (relative resistance ratio) = IC50MDR/IC50PAR [4],% basal P-gp activity [2] [%],Interaction [1],CI at ED50 (combination index) [1],SI C/B (Selectivity Index) [5],SI C/A (Selectivity Index) [5],IC50 [5] [µM]
"CCC1CN(C)C2Cc3c([nH]c4ccccc34)C(=NN=Cc3ccc(N(C)C)cc3)CC1C2C(=O)OC (stereo not shown) [Compound 12, 3-[(4″-(dimethylamino)benzylidene)hydrazineylidene]dregamine]",stimulating the P-gp activity,12.8 ± 0.16,7.42 ± 0.48,0.58,–,Strong Synergism,0.231,1.91,1.10,14.2 ± 0.59
"CCC1CN(C)C2Cc3c([nH]c4ccccc34)C(=NN=Cc3ccc4ccccc4c3)CC1C2C(=O)OC (stereo not shown) [Compound 18, 3-[(2″-naphthalenylmethylene)hydrazineylidene]dregamine]",inhibitors of P-gp ATPase activity,11.3 ± 0.84,9.58 ± 0.74,0.85,< 100,Strong Synergism,0.285,1.22,1.04,11.7 ± 1.53

# The next compounds have a lower IC50 [3] than those just listed; values first:
Effect on P-gp ATPase activity [2],IC50 [3] [µM],IC50 [4] [µM],RR (relative resistance ratio) = IC50MDR/IC50PAR [4],% basal P-gp activity [2] [%],SMILES,Interaction [1],CI at ED50 (combination index) [1],SI C/B (Selectivity Index) [5],SI C/A (Selectivity Index) [5],IC50 [5] [µM]
inhibitors of P-gp ATPase activity,9.07 ± 0.67,7.9 ± 0.44,0.87,< 100,"CCC1CN(C)C2Cc3c([nH]c4ccccc34)C(=NN=Cc3cc(OC)c(OC)c(OC)c3)CC1C2C(=O)OC (stereo not shown) [Compound 17, 3-[(3″,4″,5″-trimethoxybenzylidene)hydrazineylidene]dregamine]",Synergism,0.309,10.79,9.39,85.2 ± 1.62
inhibitors of P-gp ATPase activity,8.72 ± 0.53,8.73 ± 0.53,1.00,< 100,"CCC1CN(C)C2Cc3c([nH]c4ccccc34)C(=NN=Cc3cc4ccccc4[nH]3)CC1C2C(=O)OC (stereo not shown) [Compound 20, 3-[((1H-indol-2-yl)methylene)hydrazineylidene]dregamine]",Strong Synergism,0.291,1.57,1.58,13.8 ± 0.69
inhibitors of P-gp ATPase activity,6.56 ± 0.04,7.4 ± 0.2,1.13,< 100,"CCC1CN(C)C2Cc3c([nH]c4ccccc34)C(=NNC(=O)Nc3ccc(Br)cc3)CC1C2C(=O)OC (stereo not shown) [Compound 29, 3-[2″-((4‴-bromophenyl)carbamoyl)hydrazineylidene]dregamine]",Strong Synergism,0.173,1.76,1.99,13 ± 0.4
